Experimental data: patent US6448374B1, “Production of phosphopeptides from casein” (The University of Melbourne, priority 1991, dated 2002)
Where no end group is shown, it is not given here. [ ]: non-standard residue; d: D form. pS = N[C@@H](COP(=O)(O)O)C(=O)O

Experiments:
[1] = calcium binding of the phosphopeptide; format: physicochemical; conditions: calcium phosphate ACPP
Text: (§1) The calcium ACPP can be converted to calcium phosphate ACPP by addition of CaCl2 and Na2HPO4 where the Ca/P final ratio is 1.67. The peptide αs1(59-79) can bind 21 Ca and 13 PO4. The filtrate of the above process is suited for the purification of other bioactive casein peptides by size and charge-based separation technologies and can be used as microbiological growth media, as dietary supplements after debittering or as a nitrogen fertilizer.

[2] = phosphate binding of the phosphopeptide; format: physicochemical; conditions: calcium phosphate ACPP
Text: as §1

[3] = phosphopeptides released by tryptic digestion of casein; from Australian Patent No. 593365; cited from earlier work

Substance	Ca bound per peptide [1]	PO4 bound per peptide [2]	anticariogenic (tooth-decay-inhibiting) activity [3]
αs1(59-79): casein tryptic phosphopeptide containing -Ser(P)-Ser(P)-Ser(P)-Glu-Glu- (QMEAESI[pS][pS][pS]EEIVPNSVEQK; ends and bridges not checked; also: other serines' phosphorylation not given here)	21 Ca	13 PO4	anticariogenic (tooth-decay-inhibiting) activity
αs2(2-21): casein tryptic phosphopeptide containing -Ser(P)-Ser(P)-Ser(P)-Glu-Glu- (NTMEHV[pS][pS][pS]EESIISQETYK; ends and bridges not checked; also: other serines' phosphorylation not given here)	–	–	anticariogenic (tooth-decay-inhibiting) activity
αs2(46-70): casein tryptic phosphopeptide containing -Ser(P)-Ser(P)-Ser(P)-Glu-Glu- (NANEEEYSIG[pS][pS][pS]EESAEVATEEVK; ends and bridges not checked; also: other serines' phosphorylation not given here)	–	–	anticariogenic (tooth-decay-inhibiting) activity
β(2-25): casein tryptic phosphopeptide containing -Ser(P)-Ser(P)-Ser(P)-Glu-Glu- (ELEELNVPGEIVESL[pS][pS][pS]EESITR; ends and bridges not checked; also: other serines' phosphorylation not given here)	–	–	anticariogenic (tooth-decay-inhibiting) activity
